Measured values: US11680047B2, “Enhanced erythropoiesis and iron metabolism” (FibroGen, Inc., priority 2003, dated 2023)

How the values were obtained:
[1] = tested on: Ceruloplasmin; test: Ceruloplasmin mRNA expression in mouse kidney (microarray); format: in vivo; conditions: single dose 100 mg/kg
Method: (§1) Compounds were generally administered orally by gavage or IV administration. Animals treated by oral gavage received a 4-10 ml/kg volume of either 0.5% carboxymethyl cellulose (CMC; Sigma-Aldrich, St. Louis Mo.) with or without 0.1% Polysorbate 80 (0 mg/kg/day) or varying doses of a compound of the present invention (e.g., a HIF prolyl hydroxylase inhibitor) in 0.5% CMC, with or without 0.1% Polysorbate 80, using various dosing regimens. Blood samples were collected at appropriate intervals during treatment from, e.g., tail vein (rats), or abdominal vein or cardiocentesis (mice or rats). Generally, animals were anesthetized with isoflurane and blood samples were collected into MICROTAINER serum separator tubes (Becton-Dickinson, Franklin Lakes N.J.). For measurement of serum components, the tubes were incubated at room temperature for 30 minutes, and then centrifuged at 8,000 rpm at 4° C. for 10 minutes. The serum fraction was then processed and analyzed for the presence of specific components, e.g., serum iron (assay performed by Quality Clinical Labs, Mountain View, Calif.). For determination of hematocrit, blood samples were collected into MICROTAINER EDTA-2K tubes (Becton-Dickinson); EDTA-blood was then drawn into 75 mm×1.1-1.2 mm I.D. capillary tubes (Chase Scientific Glass, Inc., Rockwood Tenn.) to approximately % length, one end of the tube was sealed with CRITOSEAL sealant (Sherwood Medical Company), and the tubes were centrifuged in a J-503M MICROHEMATOCRIT centrifuge (Jorgensen Laboratories, Inc., Loveland Colo.) at 12,000 rpm for 5 minutes. Hematocrit was read against a reader card. When indicated, complete blood count (CBC) analysis, including blood hemoglobin level, reticulocyte number, and hematocrit, was performed by Quality Clinical Labs (Mountain View, Calif.).
(§2) Swiss Webster male mice were treated as described above with a single dose of 0.5% CMC (Sigma-Aldrich) (0 mg/kg) or 100 mg/kg compound A. At 4, 8, 16, 24, 48, or 72 hours post-administration, animals were anesthetized, sacrificed, and tissue samples of kidney, liver, brain, lung, and heart were isolated and stored in RNALATER solution (Ambion) at −80° C. Alternatively, animals were treated to 4 consecutive daily doses of 0.5% CMC (0 mg/kg/day), 7.5 mg/ml compound A in 0.5% CMC (30 mg/kg/day), or 25 mg/ml compound A in 0.5% CMC (100 mg/kg/day). Four hours after administration of the final dose, animals were anesthetized, sacrificed, and approximately 150 mg of liver and each kidney were isolated and stored in RNALATER solution (Ambion) at −20° C.
(§3) RNA isolation was carried out using the following protocol. A section of each organ was diced, 875 μl of RLT buffer (RNEASY kit; Qiagen Inc., Valencia Calif.) was added, and the pieces were homogenized for about 20 seconds using a rotor-stator POLYTRON homogenizer (Kinematica, Inc., Cincinnati Ohio). The homogenate was micro-centrifuged for 3 minutes to pellet insoluble material, the supernatant was transferred to a new tube and RNA was isolated using an RNEASY kit (Qiagen) according to the manufacturer's instructions. The RNA was eluted into 80 μL of water and quantitated with RIBOGREEN reagent (Molecular Probes, Eugene Oreg.). The absorbance at 260 and 280 nm was measured to determine RNA purity and concentration.
(§4) Alternatively, tissue samples were diced and homogenized in TRIZOL reagent (Invitrogen Life Technologies, Carlsbad Calif.) using a rotor-stator POLYTRON homogenizer (Kinematica). Homogenates were brought to room temperature, 0.2 volumes chloroform was added, and samples were mixed vigorously. Mixtures were incubated at room temperature for several minutes and then were centrifuged at 12,000 g for 15 min at 4° C. The aqueous phase was collected and 0.5 volumes of isopropanol were added. Samples were mixed, incubated at room temperature for 10 minutes, and centrifuged for 10 min at 12,000 g at 4° C. […]

[2] = tested on: Hepcidin; test: Hepcidin mRNA expression in mouse liver (microarray); format: in vivo
Method: as §1, §2, §3, §4

[3] = tested on: rat model of ACD; test: Rat model of ACD (PG-PS), Experimental Series 1; format: in vivo; conditions: anemic rats, 60 mg/kg PO
From the text: Anemia of chronic disease (ACD) is associated with various inflammatory conditions, including arthritis, neoplastic disease, and other disorders associated with chronic inflammation. A rat model of ACD was used to examine the effects of HIF stabilization using methods and compounds of the present invention on treating anemia associated with chronic disease. In this animal model, ACD is induced in rats by peptidoglycan-polysaccharide polymers. (See, e.g., Sartor et al. (1989) Infection and Immunity 57:1177-1185.) In this model, animals develop severe, acute anemia in the initial stages, followed by moderately severe chronic microcytic anemia in later stages.
Female Lewis rats of approximately 160 grams were challenged with PG-PS 10S (Lee Laboratories, 15 μg/gm body weight, intra-peritoneal). PG-PS 10S contains purified peptidoglycan-polysaccharide polymers isolated from the cell wall of Streptococcus pyogenes, Group A, D58 strain. Arthritis and anemia were allowed to develop for 35 days. On day 35, blood samples (approximately 400 μl) were taken from the tail vein under general anesthesia (Isoflurane) for CBC and reticulocyte counts (performed by Quality Clinical Labs). Animals with a spun hematocrit level at or above 45% were considered non-anemic and were removed from the study.
On day 35 following PG-PS injection, anemic animals received vehicle alone or were treated with compound A (60 mg/kg, PO) for two consecutive days per week for two weeks. Automated complete blood counts (CBC) were measured on day 35 (see above), 39, 42, and 49; serum iron levels were measured on day 49.

[4] = tested on: E-selectin; test: IL-1β induced E-selectin expression in HUVEC; format: cell-based, human; conditions: 1 ng/ml IL-1β, 1 day
Method: To investigate the effect of HIF prolyl hydroxylase inhibition on IL-1β induced E-selectin expression, HUVECs were stimulated with 1 ng/ml IL-1β in the absence or presence of various concentrations of compound B or compound C for 1 day. E-selectin expression was then measured.

[5] = tested on: VCAM-1; test: IL-1β induced VCAM-1 expression in HUVEC; format: cell-based, human; conditions: IL-1β 1 ng/ml, 1 day
Method: To investigate the effect of HIF prolyl hydroxylase inhibition on IL-1β induced VCAM-1 expression, HUVEC (human umbilical vein endothelial cells) were stimulated with IL-1β in the absence or presence of various concentrations of compound B or compound C for 1 day. VCAM expression was then measured.

O=C(O)CNC(=O)c1nc(Cl)c2ccccc2c1O [Compound A, [(1-Chloro-4-hydroxy-isoquinoline-3-carbonyl)-amino]-acetic acid]
Ceruloplasmin (relative mRNA levels) ([1]; 4 hours): 1.16 | Ceruloplasmin (relative mRNA levels) ([1]; 8 hours): 1.39 | Ceruloplasmin (relative mRNA levels) ([1]; 16 hours): 1.22 | Ceruloplasmin (relative mRNA levels) ([1]; 24 hours): 2.45 | Ceruloplasmin (relative mRNA levels) ([1]; 48 hours): 1.44 | Ceruloplasmin (relative mRNA levels) ([1]; 72 hours): 2.10 | Hepcidin (relative mRNA levels) ([2]; animal study I, multi high dose): 0.275 | Hepcidin (relative mRNA levels) ([2]; animal study II, multi high dose): 0.703 | Hepcidin (relative mRNA levels) ([2]; animal study II, multi low dose): 0.129 | Hepcidin (relative mRNA levels) ([2]; animal study III, 4 hour): 0.672 | Hepcidin (relative mRNA levels) ([2]; animal study III, 8 hour): 0.305 | Hepcidin (relative mRNA levels) ([2]; animal study III, 16 hour): 0.119 | hematocrit levels ([3]; 5 days after initiation of treatment): approximately 37% | hemoglobin levels ([3]; as early as 5 days (day 39)): increased hemoglobin levels in anemic animals | Reticulocyte levels ([3]; day 39): approximately 10 % of red cell counts | hemoglobin levels ([3]; day 49): reaching a level comparable to control non-anemic animals | hematocrit levels ([3]; following a second dosing): approximately 40% | red blood cell count ([3]; from day 39): increased red blood cell count in anemic animals | mean corpuscular volume ([3]; from day 39, vs non-treated anemic animals): increased mean corpuscular volume | mean corpuscular hemoglobin levels ([3]; vs non-treated anemic animals): increased mean corpuscular hemoglobin levels

O=C(O)CNC(=O)c1ncc2cc(Oc3ccccc3)ccc2c1O [Compound B, [(4-Hydroxy-7-phenoxy-isoquinoline-3-carbonyl)-amino]-acetic acid]
inhibition of IL-1β induced E-selectin expression [4]: dose-dependent inhibition of IL-1β induced E-selectin expression | inhibition of IL-1β induced VCAM-1 expression [5]: does-dependent inhibition of IL-1β induced VCAM-1 expression
